ChEMBL document CHEMBL1134911, “Nodulisporic acid B, B1, and B2: a series of 1'-deoxy-nodulisporic acids from Nodulisporium sp” (Bioorg Med Chem Lett, 2002)

Assay: Lethal dose was evaluated against flea
Conditions: pulicinae; call rule not given here

| Molecule | LD90 |
| --- | --- |
| IVERMECTIN | 10 p.p.m. |
| C=C(C)[C@H]1Cc2c3c(cc4c5c(n1c24)[C@@]1(C)[C@@H](CC[C@H]2[C@](C)(/C=C/C=C(\C)C(=O)[O-])[C@@H](O)CC[C@@]21C)C5)C1=CC(C)(C)OC(C)(C)[C@H]1[C@@H]3O.[Na+] | 100 p.p.m. |
| C=C(C)[C@H]1Cc2c3c(cc4c5c(n1c24)[C@@]1(C)[C@@H](CC[C@H]2[C@](C)(/C=C/C=C(\C)C(=O)OC)[C@@H](O)CC[C@@]21C)C5)C1=CC(C)(C)OC(C)(C)[C@H]1[C@@H]3O | 100 p.p.m. |
| C=C(C)[C@H]1C(=O)c2c3c(cc4c5c(n1c24)[C@@]1(C)[C@@H](CC[C@H]2[C@](C)(/C=C/C=C(\C)C(=O)OC)[C@@H](O)CC[C@@]21C)C5)C1=CC(C)(C)OC(C)(C)[C@H]1[C@@H]3O | 10 p.p.m. |
| C=C(C)[C@H]1C(=O)c2c3c(cc4c5c(n1c24)[C@@]1(C)[C@@H](CC[C@@H]2[C@]1(C)CC[C@]1(O)O[C@H](C(O)C(C)C(=O)O)C[C@@]21C)C5)C1=CC(C)(C)OC(C)(C)[C@H]1[C@@H]3O (stereo partly specified) [NODULISPORIC ACID A2] | 10 p.p.m. |
| C=C(C)[C@H]1C(=O)c2c3c(cc4c5c(n1c24)[C@@]1(C)[C@@H](CC[C@@H]2[C@]1(C)CC[C@]1(O)O[C@H](/C=C(\C)C(=O)O)C[C@@]21C)C5)C1=CC(C)(C)OC(C)(C)[C@H]1[C@@H]3O [NODULISPORIC ACID A1] | 5 p.p.m. |
| C=C(C)[C@H]1C(=O)c2c3c(cc4c5c(n1c24)[C@@]1(C)C(CC[C@H]2[C@](C)(/C=C/C=C(\C)C(=O)O)[C@@H](O)CC[C@@]21C)C5)C1=CC(C)(C)OC(C)(C)C1[C@@H]3O (stereo partly specified) [NOD ACID A] | 1 p.p.m. |

Assay: Lethal dose was evaluated against flea; NA means not active at 100 ppm
Type: ADME
Conditions: pulicinae

| Molecule | LD90 |
| --- | --- |
| C=C(C)[C@H]1Cc2c3c(cc4c5c(n1c24)[C@@]1(C)[C@@H](CC[C@@H]2[C@]1(C)CC[C@]1(O)O[C@H](C(O)C(C)C(=O)[O-])C[C@@]21C)C5)C1=CC(C)(C)OC(C)(C)[C@H]1[C@@H]3O.[Na+] (stereo partly specified) | Not Active |
| C=C(C)[C@H]1Cc2c3c(cc4c5c(n1c24)[C@@]1(C)[C@@H](CC[C@@H]2[C@]1(C)CC[C@]1(O)O[C@H](/C=C(\C)C(=O)[O-])C[C@@]21C)C5)C1=CC(C)(C)OC(C)(C)[C@H]1[C@@H]3O.[Na+] | Not Active |
| C=C(C)[C@H]1Cc2c3c(cc4c2N1C(=O)[C@@]1(C)[C@@H](CC[C@H]2[C@](C)(/C=C/C=C(\C)C(=O)OC)[C@@H](O)CC[C@@]21C)CC4=O)C1=CC(C)(C)OC(C)(C)[C@H]1[C@@H]3O | Not Active |

Assay: Lethal dose was evaluated against flea; partial activity
Type: ADME
Conditions: pulicinae

| Molecule | LD90 |
| --- | --- |
| C=C(C)[C@H]1Cc2c3c(cc4c5c(n1c24)[C@@]1(C)[C@@H](CC[C@H]2[C@](C)(/C=C/C=C(\C)C(=O)OC)[C@@H](O)CC[C@@]21C)C5)C1=CC(C)(C)OC(C)(C)[C@H]1[C@@H]3O | 10 p.p.m. |
